Measurements published in patent US9598387B2 (Southern Research Institute, priority 2012, dated 2017).
Where two headings read alike, the source gives them in different places.

How the values were obtained:
[1] = target: human D2-long dopamine receptor (Homo sapiens (Human), UniProt P14416); test: Radioligand binding (125I-IABN competition), D2; details: HEK cell membranes expressing human D2-long
Experimental: (§1) The affinities of the target compounds were determined using radioligand binding experiments. […] Competition curves were modeled for a single site. Data from competition dose-response curves were analyzed using Tablecurve program (Jandel). IC50 values were converted to equilibrium dissociation constants (Ki values) using the Cheng and Prusoff correction.

[2] = target: T1, human D3 dopamine receptor (Homo sapiens (Human), UniProt P35462); test: Radioligand binding (125I-IABN competition), D3; details: for Ki: 125I-IABN competition, HEK cell membranes expressing human D3; for D2/D3 (D3 selectivity ratio, D2 Ki/D3 Ki): calculated D2 Ki/D3 Ki
Experimental: as §1

[3] = target: human D2 dopamine receptors (Homo sapiens (Human), UniProt P14416); test: Whole Cell Adenylyl Cyclase Assay, D2; format: cell-based; details: inhibition of forskolin (100 μM) stimulated cAMP, normalized to quinpirole; compound conc ≥10× Ki (per compound); mean ± S.E.M.
Experimental: (§2) The intrinsic activity of the compounds was evaluated by determining their ability to inhibit forskolin-dependent (100 μM) stimulation of adenylyl cyclase activity using a whole cell assay. A whole cell-cyclic AMP accumulation assay was performed with stably transfected HEK cells expressing human D2 or D3 dopamine receptors. This assay is an adaptation of an earlier published method (Su et al., Cyclic Nucleotide Res. 1976, 2, 257-285). Details regarding this method have been published (Chu, W. et al. Bioorg. Med. Chem. 2005, 13, 77-87; Taylor, M. et al. Synapse 2010, 64, 251-266). Confluent (60-80%) HEK cells transfected with recombinant D2-like dopamine receptors were grown in DMEM/10% fetal calf serum containing geneticin in […] flasks. The endogenous ATP pool is radioactively labeled by preincubating the cells in serum-free DMEM/25 mM Hepes medium containing 2 μCi/mL of [2,8-^3H]-adenine (20-Ci/mmol) in a 5% CO2 incubator at 37° C. for 75 min. The radioactive medium was removed by aspiration. Serum-free DMEM (5.6 mL) containing 25 mM HEPES, pH 7.4, and 0.1 mM of the phosphodiesterase inhibitor isobutylmethylxanthine was added to the flask. A […] aliquot of cells was removed and added to 50 μL of forskolin (100 μM) and 50 μL of test drug or quinpirole in DMEM-HEPES. The cells were incubated for 20 min at 37° C. (vortexing every 5 min). The reaction was terminated by the addition of 0.5 mL of 10% trichloroacetic acid (w/v) containing 1.0 mM unlabeled cyclic AMP as a recovery standard. Both the [^3H]-cyclic AMP and the [^3H]-ATP fractions were collected following separation using columns of Dowex AG-50W-X4 and alumina. The final yield of [^3H]-cyclic AMP is corrected for column recovery of unlabeled cyclic AMP determined spectrophotometrically (OD259). The results are reported as percent conversion of [^3H]-ATP into [^3H]-cyclic AMP. The values for the percent inhibition are reported as the actual percent of inhibition of the ^3H-cAMP accumulation relative to the assay performed in the absence of a test compound, minus basal activity. […] The percent maximum response is the value for the inhibition normalized to the value for the full agonist quinpirole.

[4] = target: T1, human D3 dopamine receptor; test: Whole Cell Adenylyl Cyclase Assay, D3; format: cell-based; details: inhibition of forskolin (100 μM) stimulated cAMP, normalized to quinpirole; compound conc ≥10× Ki (per compound); mean ± S.E.M.
Experimental: as §2

human D2 receptors = human D2 receptors (Homo sapiens (Human), UniProt P14416); test: D2 Mitogenesis Functional Assay (3H-thymidine uptake, CHOp-D2 cells); format: cell-based; details: for Emax at 10 µM: % maximum stimulation vs quinpirole (100%), read-out: D2 Agonist Emax; for Emax at 10 µM / D2 Antagonist Imax: at 10 μM; for D2 Antagonist Imax: inhibition of quinpirole stimulation of mitogenesis; for IC50: read-out: D2 Antagonist IC50
Experimental: (§3) These assays are based on ^3H-thymidine uptake by cells that are proliferating.
CHO cells expressing human D2 receptors (CHOp-D2 cells) were maintained in alpha-MEM with 10% FCS, 0.05% pen-strep, and 200 μg/mL of G418. […] The cells were incubated at 37° C. in alpha-MEM with 10% FCS. After 48-72 hours, the cells were rinsed twice with serum-free alpha-MEM and incubated for 24 hours at 37° C. Serial dilutions of test compounds were made by the Biomek robotics system in serum-free alpha-MEM. In the functional assay for agonism, the medium was removed and replaced with 100 μL of test compound in serum-free alpha-MEM. In the antagonist assay, the serial dilution of the putative antagonist test compound was added in 90 μL (1.1× of final concentration) and 300 nM quinpirole (30 nM final) was added in […]. After another 24-hour incubation at 37° C., 0.25 μCi of [^3H]thymidine in alpha-MEM supplemented with 10% FCS was added to each well and the plates were further incubated for 2 hours at 37° C. The cells were trypsinized by addition of 10× trypsin solution (1% trypsin in calcium-magnesium-free phosphate-buffered saline) and the plates were filtered and counted as usual. Quinpirole was run as an internal control and dopamine was included for comparative purposes. Butaclamol was run as the standard antagonist.

D3R = D3R (Homo sapiens (Human), UniProt P35462); test: D3 Mitogenesis Functional Assay (3H-thymidine uptake, CHOp-D3 cells); format: cell-based; details: for Emax at 10 µM: % maximum stimulation vs quinpirole (100%), read-out: D3 Agonist Emax; for D3 Antagonist Imax: inhibition of quinpirole stimulation of mitogenesis; for IC50: read-out: D3 Antagonist IC50
Experimental: as §3
CHO cells expressing human D3 receptors (CHOp-D3 cells) were maintained in alpha-MEM with 10% fetal bovine serum (FBS, Atlas Biologicals), 0.05% pen-strep, and 200 μg/ml of G418. […] The cells are incubated at 37° C. in alpha-MEM with 10% FBS. After 48-72 hours, the cells are rinsed twice with serum-free alpha-MEM and incubated for 24 hours at 37° C. Serial dilutions of test compounds were made by the Biomek robotics system in serum-free alpha-MEM. In the functional assay for agonism, the medium is removed and replaced with 100 μL of test compound in serum-free alpha-MEM. In the antagonist assay, the serial dilution of the putative antagonist test compound was added in 90 μL (1.1× of final concentration) and 300 nM quinpirole (30 nM final) was added in 10 uL. After another 16-hour incubation at 37° C., 0.25 μCi of [^3H]thymidine in alpha-MEM supplemented with 10% FBS was added to each well and the plates were further incubated for 2 hours at 37° C. The cells were trypsinized by addition of 10× trypsin solution (1% trypsin in calcium-magnesium-free phosphate-buffered saline) and the plates were filtered and counted as usual. Quinpirole was run as an internal control and dopamine was included for comparative purposes. Butaclamol was run as the standard antagonist. Data were analyzed using GraphPAD Prism and agonist potency was expressed as EC50 values or % stimulation and antagonist potency was expressed as IC50 values. In these assays, based on the % maximum stimulation as compared to the standard agonist quinpirole (100%) the compounds were classified into following categories: ≧90% full agonist; 70-90% partial to full agonist; <70% partial agonist; 0-20% potential antagonist.

[5] = inhibition of quinpirole (30 nM final) stimulation of mitogenesis

human D2 dopamine receptors, sequence (P14416 whole entry): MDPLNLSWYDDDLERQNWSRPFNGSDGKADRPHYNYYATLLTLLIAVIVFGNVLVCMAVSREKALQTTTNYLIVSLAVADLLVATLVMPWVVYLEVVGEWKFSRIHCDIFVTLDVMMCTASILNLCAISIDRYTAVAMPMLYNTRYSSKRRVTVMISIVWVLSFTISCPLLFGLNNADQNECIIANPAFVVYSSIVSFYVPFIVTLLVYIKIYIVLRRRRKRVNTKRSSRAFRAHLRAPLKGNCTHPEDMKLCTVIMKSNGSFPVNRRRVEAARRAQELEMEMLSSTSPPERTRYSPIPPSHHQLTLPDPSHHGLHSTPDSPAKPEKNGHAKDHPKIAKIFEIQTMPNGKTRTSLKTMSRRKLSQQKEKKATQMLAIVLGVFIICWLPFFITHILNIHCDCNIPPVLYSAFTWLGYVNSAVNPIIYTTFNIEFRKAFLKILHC
human D2-long dopamine receptor, sequence (P14416 whole entry): as above
human D2 receptors, sequence (P14416 whole entry): as above
T1 sequence (P35462 whole entry): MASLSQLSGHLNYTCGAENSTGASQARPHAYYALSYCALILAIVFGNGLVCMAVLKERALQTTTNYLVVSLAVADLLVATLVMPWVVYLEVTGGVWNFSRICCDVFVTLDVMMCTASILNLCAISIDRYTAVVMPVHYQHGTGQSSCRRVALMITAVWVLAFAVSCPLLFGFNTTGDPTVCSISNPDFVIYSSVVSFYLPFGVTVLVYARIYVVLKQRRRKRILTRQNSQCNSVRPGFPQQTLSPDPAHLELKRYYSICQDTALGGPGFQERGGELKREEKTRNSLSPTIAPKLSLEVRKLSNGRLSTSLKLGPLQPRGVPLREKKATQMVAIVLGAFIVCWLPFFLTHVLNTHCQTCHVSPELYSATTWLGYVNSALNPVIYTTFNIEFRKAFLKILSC
D3R, sequence (P35462 whole entry): as above

SMILES | Ki [1] | Ki [2] | D2/D3 (D3 selectivity ratio, D2 Ki/D3 Ki) [2] | D2 Cyclase % Inhibition Normalized [3] | D3 Cyclase % Inhibition Normalized [4] | EC50 (human D2 receptors; CHOp-D2 cells, stimulation of mitogenesis, read-out: D2 Agonist EC50) | Emax at 10 µM (human D2 receptors) | D2 Antagonist Imax (human D2 receptors) | IC50 (human D2 receptors) | EC50 (D3R; CHOp-D3 cells, stimulation of mitogenesis, read-out: D3 Agonist EC50) | Emax at 10 µM (D3R) | D3 Antagonist Imax (D3R) | IC50 (D3R) | IC50 (human D2 receptors; [5]) | IC50 (D3R; [5])
O=C(NCCCCN1CCN(c2ccccc2)CC1)N1CCN(c2ccccc2)CC1 [Compound 1, 4-Phenyl-N-(4-(4-phenylpiperazin-1-yl)butyl)piperazine-1-carboxamide] | 124 ± 26.2 nM | 2 ± 0.2 nM | 62 | 91.4 ± 2.4% | 48.3 ± 9.4% | – | – | – | – | – | – | – | – | – | –
N#Cc1cc(N2CCN(CCCCNC(=O)N3CCN(c4ccccc4)CC3)CC2)cc(C(F)(F)F)c1 [Compound 4, N-(4-(4-(3-Cyano-5-(trifluoromethyl)phenyl)piperazin-1-yl)butyl)-4-phenylpiperazine-1-carboxamide] | 294 ± 59.6 nM | 4.1 ± 1 nM | 72 | −9.2 ± 8.3% | 8.2 ± 4.2% | – | – | – | – | – | – | – | – | – | –
Cc1cc(N2CCN(CCCCNC(=O)N3CCN(c4ccccc4)CC3)CC2)nc(C(F)(F)F)n1 [Compound 7, N-(4-(4-(6-Methyl-2-(trifluoromethyl)pyrimidin-4-yl)piperazin-1-yl)butyl)-4-phenylpiperazine-1-carboxamide] | 3880 ± 1220 nM | 41.5 ± 9.1 nM | 93 | 30.4 ± 14.6% | 42.4 ± 8.9% | – | – | – | – | – | – | – | – | – | –
O=C(NCCCCN1CCN(c2ccnc3ccccc23)CC1)N1CCN(c2ccccc2)CC1 [Compound 11, 4-Phenyl-N-(4-(4-(quinolin-4-yl)piperazin-1-yl)butyl)piperazine-1-carboxamide] | 1170 ± 128 nM | 9.8 ± 1.2 nM | 119 | 24.4 ± 3.8% | 43.1 ± 9.4% | – | – | – | – | – | – | – | – | – | –
CC(C)(C)c1nc(N2CCN(CCCCNC(=O)N3CCN(c4cccc(C#N)c4)CC3)CC2)cc(C(F)(F)F)n1 [Compound 26, N-(4-(4-(2-(tert-Butyl)-6-(trifluoromethyl)pyrimidin-4-yl)piperazin-1-yl)butyl)-4-(3-cyanophenyl)piperazine-1-carboxamide] | 707 ± 96.2 nM | 8.7 ± 2.2 nM | 81 | 34.0 ± 9.1% | 20.0 ± 6.2% | – | – | – | – | – | – | – | – | – | –
CC(C)(C)c1nc(N2CCN(CCCCNC(=O)N3CCN(c4cccnc4)CC3)CC2)cc(C(F)(F)F)n1 [Compound 30, N-(4-(4-(2-(tert-Butyl)-6-(trifluoromethyl)pyrimidin-4-yl)piperazin-1-yl)butyl)-4-(pyridin-3-yl)piperazine-1-carboxamide] | 455 ± 86 nM | 5.9 ± 1.1 nM | 77 | 6.1 ± 7.5% | 9.1 ± 5.8% | – | – | – | – | – | – | – | – | – | –
CC(C)(C)c1nc(N2CCN(CCCCNC(=O)N3CCN(c4ncccn4)CC3)CC2)cc(C(F)(F)F)n1 [Compound 32, N-(4-(4-(2-(tert-Butyl)-6-(trifluoromethyl)pyrimidin-4-yl)piperazin-1-yl)butyl)-4-(pyrimidin-2-yl)piperazine-1-carboxamide] | 1190 ± 67.4 nM | 13.7 ± 3.1 nM | 87 | – | 40.8 ± 9.7% | > 10 µM | < 1% | 100% at 10 μM | 257 ± 90 nM | > 10 µM | < 8% | 84.4% | 195 ± 39 nM | – | –
O=C(NCCCCN1CCN(c2cccc(Cl)c2Cl)CC1)N1CCC(c2ccccc2)CC1 [Compound 47, N-(4-(4-(2,3-Dichlorophenyl)piperazin-1-yl)butyl)-4-phenylpiperidine-1-carboxamide] | 102 ± 11 nM | 1.9 ± 0.4 nM | 53 | – | 78.9 ± 17.1% | – | < 20% | 98.5% at 10 μM | 286 ± 27 nM | – | < 20% | 96.8% | 40 ± 15 nM | – | –
CC(C)(C)c1nc(N2CCN(CCCCNC(=O)c3cn4ccncc4n3)CC2)cc(C(F)(F)F)n1 [Compound 115, N-(4-(4-(2-(tert-Butyl)-6-(trifluoromethyl)pyrimidin-4-yl)piperazin-1-yl)butyl)imidazo[1,2-a]pyrazine-2-carboxamide] | 450 nM | 8 ± 1.6 nM | 56 | – | 37.8 ± 5.4% | – | < 20% | 96.6% at 10 μM | – | – | < 20% | 94.7% | – | 420 ± 120 nM | 245 ± 33 nM
